For experiment [1], the system named is Primary dopaminergic neurons. Briefly: MPP+ exposure in dopaminergic neurons (3H-dopamine uptake). Type of experiment: cell-based, rat. As to conditions: 10 μM MPP+ for 60 minutes, read 24 hours later. How it is done:
Primary dopaminergic neurons were isolated from E15 rat embryos as described in Pong K., et al., (1997) J. Neurochem. 69 986-994. Briefly, the ventral mesencephalon was isolated and tissue was pooled in ice-cold phosphate buffer saline (PBS) without Ca^2+ and Mg^2+. The tissue was transferred to an enzymatic dissociation media containing 20 IU/ml papain in Earle's balanced salt solution (Worthington Biochemical, Freehold, N.J.) and incubated for 30 minutes at 37° C. After enzymatic dissociation, the papain solution was aspirated and the tissue mechanically triturated with a fire-polished Pasteur pipette in complete media [Neurobasal Medium with B-27 supplement (Gibco, Grand Island, N.Y.), penicillin/streptomycin, aphidicolin, glutamate] containing 2,000 IU/ml DNase and 10 mg/ml ovomucoid protease inhibitor. Single-cell suspensions in complete media were plated on pre-coated poly-L-ornithine/laminin 24-well plates (Becton-Dickinson, Bedford, Mass.) at a density of 5.0×10^5 cells/well. […]
Cultures were treated with various concentrations of Compound A and GDNF (glial-cell line derived neurotrophic factor, a positive control) hours before exposure to the neurotoxin MPP^+, the toxic metabolite of MPTP. […] Dopaminergic neuron viability was determined 24 hours later by measuring ^3H-dopamine uptake as described in Pong et al., 1997, supra.

In experiment [2] the test system is Adult male Wistar rats. Briefly: Transient middle cerebral artery occlusion (tMCAO). Type of experiment: in vivo. On the procedure:
Adult male Wistar rats (Charles River, Wilmington, Mass.) 290-310 g were anesthetized with 3% isoflurane in 70% nitrous oxide and 30% oxygen through a nose cone. Temperature was maintained at 37° C. throughout the surgery using a heating lamp. Transient MCAO was induced for 90 min using the intraluminal suture method (see Longa, E. L. et al., 1989 Stroke 20:294-297). Briefly, an 18 mm length of 4-0 monofilament nylon suture coated with 0.1% poly-L-lysine (Belayev, L. et al, 1996 Stroke 27:1616-1623) and a flame-rounded tip was inserted into the external carotid artery and advanced through the internal carotid to occlude the origin of the middle cerebral artery (MCAO). Ninety minutes later the rats were re-anesthetized and the suture was withdrawn. Rats were sacrificed at 72 hrs post-MCAO.
Behavioral score: Animals are tested for motor deficits using a modified Bederson score. Briefly, animals are tested for flexion of the contralateral forelimb, twisting of the torso, decreased resistance to lateral push, circling to the contralateral side when holding the tail, and spontaneous circling. Each animal is scored 1 point for each behavior detected for a total of 5 points. Each animal is score at 90 min, just prior to reperfusion, at 24 hrs, 48 hrs and 72 hrs following MCAO.
Body weight is taken prior to MCAO surgery for baseline and 24 hrs, 48 hrs and 72 hrs after MCAO.
(§1) After sacrifice, the brains are extracted and placed in a rat brain matrix and 2 mm coronal slabs are taken from 4 mm caudal to the frontal pole and extending to the hindbrain. Sections are immersed in the active mitochondrial stain TTC at 37° C. for 10 min to delineate the lesion. Digitized sections are collected on the MCID image analysis system (Imaging Research, Inc. Ontario, Canada), area measurements are determined and a total lesion volume is calculated (area×distance in mm).

Experiment [3] deals with Primary cerebellar granule neurons. In words: Oxygen-glucose deprivation (OGD) in cultured neurons. As to conditions: various concentrations, added 60 minutes before OGD; 2 hours OGD, read 24 hours later. The class given is cell-based, rat. How it is done:
Primary cerebellar granule neurons were isolated from P5-8 rat pups. Briefly, cerebelli were collected and pooled in ice-cold phosphate buffer saline (PBS) without Ca^2+ and Mg^2+. The tissue was finely chopped and transferred to an enzymatic dissociation media containing 20 IU/ml papain in Earle's balanced salt solution (Worthington Biochemical, Freehold, N.J.) and incubated for 30 minutes at 37° C. After enzymatic dissociation, the papain solution was aspirated and the tissue mechanically triturated with a fire-polished Pasteur pipette in complete media [Neurobasal Medium with B-27 supplement (Gibco, Grand Island, N.Y.), penicillin/streptomycin, aphidicolin, glutamate, potassium chloride] containing 2,000 IU/ml DNase and 10 mg/ml ovomucoid protease inhibitor. Single-cell suspensions in complete media were plated on pre-coated poly-L-ornithine/laminin 24-well plates (Becton-Dickinson, Bedford, Mass.) at a density of 5.0×10^5 cells/well. Cells were maintained for two weeks prior to experimentation.
Cultures were treated with Compound A at various concentrations, 60 minutes before OGD. Media was removed and replaced with deoxygenated buffer in an anaerobic chamber (80% nitrogen, 10% hydrogen, 10% carbon dioxide gas mixture). […] Cell death was determined by measuring lactate dehydrogenase release into the media 24 hours later (Roche Biochemicals). […]

In the next experiment the test system is B6 mice. In words: Experimental autoimmune encephalomyelitis (EAE), animal model of multiple sclerosis. The class given is in vivo. The conditions noted are these: orally, 100 mg/kg, twice/day. On the procedure:
Six groups of B6 mice were immunized with MOG/CFA and injected with pertussis toxin to induce experimental autoimmune encephalomyelitis (EAE), an animal model of Multiple sclerosis. […] Another three groups of mice were treated with vehicle, Compound A or Compound B starting on the day of EAE onset (day 15) (orally, 100 mg/kg, twice/day). […] The results are shown in FIG. 1, wherein mean clinical score is a mean of clinical evaluation of each animal for that particular day. Animals are scored as follows: • 0 no clinical signs of EAE (no paralysis) • 1—paralysis of tail • 2—paralysis of tail and partial hind leg paralysis • 3—paralysis of tail And complete hind leg paralysis • 4—paralysis of tail, complete hind leg paralysis and a partial front leg paralysis • 5—moribund animal (all four limbs paralyzed, lack of responsiveness, these mice were immediately euthanized).

For experiment [4], the system named is Adult male Wistar rats. Briefly: Permanent middle cerebral artery occlusion (pMCAO). The class given is in vivo. As to conditions: dosed four times; 72 hours post ischemia. How it is done: Adult male Wistar rats (Charles River, Wilmington, Mass.) 270-300 g were anesthetized with 3% isoflurane in 70% nitrous oxide and 30% oxygen through a nose cone. Temperature was maintained at 37° C. throughout the surgery using a heating lamp. Permanent occlusion of MCAO was induced by electrocauterization of the distal portion of the MCA (via a craniotomy) with a 120 min ligation of both carotid arteries to interrupt collateral circulation (see Chen, S. T., et al, 1986 Stroke 17:738-743). Rats were sacrificed 72 hours post ischemia for measurement of infarct volume.
as §1

Setting [5] is: 10 mg/kg and 30 mg/kg four times.

In the case of `Cc1cccc(C)c1CS(=O)(=O)NCCc1c(CCCc2ccc(C(=O)O)cc2)c2cc(Cl)ccc2n1C(c1ccccc1)c1ccccc1` [Example 52, 4-{3-[1-benzhydryl-5-chloro-2-(2-{[(2,6-dimethylbenzyl)-sulfonyl]amino}ethyl)-1H-indol-3-yl]propyl}benzoic acid], in experiment [1], the “dopaminergic neuron viability (3H-dopamine uptake)” value is given as “effective to protect dopaminergic neuron viability against MPP^+”. The “behavioral deficits (modified Bederson score)” value in the experiment on Adult male Wistar rats [2] (setting [5]) is “effectively reduced behavioral deficits”. The “weight loss following MCAO” value with Adult male Wistar rats [2] (setting [5]) was “reduced weight loss”. Further, the infarct volume result in the experiment on Adult male Wistar rats [2] (10 mg/kg or 30 mg/kg four times (90 min, […], 24 hr, 48 hr post occlusion)) is recorded as “significant level of neuroprotection”; with Adult male Wistar rats [4], “significantly reduces infarct volume”. For the same compound, the “therapeutically relevant window of opportunity” value with Adult male Wistar rats [2] (30 mg/kg 3 times, first dose 4 or 6 hrs post occlusion, measuring infarct volume and neurological deficits) was “at least 6 hrs”. For the same compound, in the experiment on Adult male Wistar rats [2] (30 mg/kg 3 times, first dose 4 or 6 hrs post occlusion, measuring weight loss), the significant treatment window was 4 h. The “OGD-induced cell death (lactate dehydrogenase release)” value in experiment [3] is on record as “effective in protecting cultured neurons from OGD-induced cell death”. Further, in the experiment on B6 mice (from the day of immunization), the “EAE clinical score: prevention of EAE” value is on record as “prevent EAE”. Further, in the experiment with B6 mice (starting on the day of EAE onset (day 15)), the “EAE clinical score: clinical severity of EAE” value is on record as “reduce clinical severity of EAE”.

The record behind these values is patent US7605156B2, “Methods for the use of inhibitors of cytosolic phospholipase A2” (Wyeth, priority 2001, dated 2009).
